“And” between values parts separate entries of the source, which are not always exact repeats. Equal values may be shown once.
Key:
soybean explants [1] = assay: Explants on different levels of spectinomycin: GUS-expressing buds and shoots; assay type: cell-based, soybean (Glycine max); settings: for % explants with GUS+ shoots/buds / # Explants with GUS+ shoots/buds: 2 mg/L TDZ in co-culture; for # Explants with GUS+ shoots/buds: 25 explants assayed
soybean explants [2] = assay: Transformation frequency using spectinomycin selection at different levels; assay type: cell-based, soybean (Glycine max)
dry soybean explants [3] = assay: Transformation frequency of dry soybean explants using glyphosate or spectinomycin as selective agent; assay type: cell-based; settings: for % TF: dry soybean explants
dry soybean explants [4] = assay: Dry soybean embryos, spectinomycin, liquid culture medium: TF with hydration conditions and liquid overlay timing; assay type: cell-based; settings: spectinomycin 150 ppm
From the text: In these studies, explants were initially hydrated and eventually regenerated on WPM solid media with liquid overlay or WPM liquid medium as above. […] In liquid overlay treatment both solid and liquid culture media were used; liquid medium was dispensed over the top of explants as they were lying on solid medium at a specified time during tissue culture as identified in the Table 30. This was done as a type of media refreshment and avoids the need for transferring explants from old media to new media. In the control treatments, explants were surface plated on a solid WPM medium (Table 2).

[5] = tested on: dry excised soybean explants; assay: Dry soybean embryos, spectinomycin, whole regenerated explant with pre-culturing step: TF and event quality; assay type: cell-based; settings: for % quality events: 1-2 copies of GUS and aadA by Invader assay; for # Events produced / TF % / qTF %: spectinomycin 150 ppm; for Estimated mTF %: marker-free TF, events without the marker gene
[6] = tested on: 3 months stored dry soybean explants; assay: Stored dry soybean explants, spectinomycin, pre-culture: TF; assay type: cell-based; settings: pMON107379
From the text: TDZ and lipoic acid were both added to the inoculum and to the co-culture media (INO). The construct, pMON107379, was a conventional 2T vector comprising oriRi and aadA gene, and co-culture was done for 5 days.

[7] = Total over all Spec levels of the experiment (1102: 25-250 mg/L; 1119: 50-250 mg/L)
[8] = first study, spectinomycin selection 25-250 mg/L

With `CN[C@@H]1[C@H](O)[C@H](NC)[C@H]2O[C@@]3(O)C(=O)C[C@@H](C)O[C@H]3O[C@@H]2[C@H]1O` [Spectinomycin, spectinomycin] the “% explants with GUS+ shoots/buds” value (soybean explants [1]; spectinomycin level 25 (mg/L)) was 52%, the “# Explants with GUS+ shoots/buds” value (soybean explants [1]; spectinomycin level 25 (mg/L)) was 13 and the “% explants with GUS+ shoots/buds” value (soybean explants [1]; spectinomycin level 50) was 72%. The “# Explants with GUS+ shoots/buds” value (soybean explants [1]; spectinomycin level 50) was 18, the “% explants with GUS+ shoots/buds” value (soybean explants [1]; spectinomycin level 100) was 76% and the “# Explants with GUS+ shoots/buds” value (soybean explants [1]; spectinomycin level 100) was 19. The “% explants with GUS+ shoots/buds” value (soybean explants [1]; spectinomycin level 150) was 72%, the “# Explants with GUS+ shoots/buds” value (soybean explants [1]; spectinomycin level 150) was 18 and the “% explants with GUS+ shoots/buds” value (soybean explants [1]; spectinomycin level 200) was 80%. The “# Explants with GUS+ shoots/buds” value (soybean explants [1]; spectinomycin level 200) was 20, the “% explants with GUS+ shoots/buds” value (soybean explants [1]; spectinomycin level 250) was 80% and the “# Explants with GUS+ shoots/buds” value (soybean explants [1]; spectinomycin level 250) was 20. For the same compound, the “explants that developed GUS-positive buds and shoots” value (soybean explants [1]; within two weeks on selective medium, about 22 DAI, TDZ-treated explants) was “Up to 80%”, the “% TF (transformation frequency)” value (soybean explants [2]; Spec level 25 mg/L) was 19% and the “Plants tested for transformation, Total” value (soybean explants [2]; Spec level 25 mg/L) was 19. For the same compound, the “Shoots harvested, % SF (shoot frequency)” value (soybean explants [2]; Spec level 25 mg/L) was 46%, the “Shoots harvested, Total” value (soybean explants [2]; Spec level 25 mg/L) was 46 and the “% TF (transformation frequency)” value (soybean explants [2]; Spec level 50 mg/L) was 14.7% and 22.2%. The “Plants tested for transformation, Total” value (soybean explants [2]; Spec level 50 mg/L) was 88 and 48, the “Shoots harvested, % SF (shoot frequency)” value (soybean explants [2]; Spec level 50 mg/L) was 24.8% and 46.8% and the “Shoots harvested, Total” value (soybean explants [2]; Spec level 50 mg/L) was 149 and 101. For the same compound, the “% TF (transformation frequency)” value (soybean explants [2]; Spec level 100 mg/L) was 15.7% and 12.6%, the “Shoots harvested, % SF (shoot frequency)” value (soybean explants [2]; Spec level 100 mg/L) was 20.5% and 20.6% and the “% TF (transformation frequency)” value (soybean explants [2]; Spec level 150 mg/L) was 26.1% and 18.3%. For the same compound, the “Shoots harvested, % SF (shoot frequency)” value (soybean explants [2]; Spec level 150 mg/L) was 35.1% and 20.8%, the “% TF (transformation frequency)” value (soybean explants [2]; Spec level 200 mg/L) was 14.4% and 12.5% and the “Shoots harvested, % SF (shoot frequency)” value (soybean explants [2]; Spec level 200 mg/L) was 28.2% and 15.2%. For the same compound, the “Shoots harvested, Total” value (soybean explants [2]; Spec level 200 mg/L) was 53 and 91, the “% TF (transformation frequency)” value (soybean explants [2]; Spec level 250 mg/L) was 19.5% and 16.3% and the “Shoots harvested, % SF (shoot frequency)” value (soybean explants [2]; Spec level 250 mg/L) was 27.5% and 18.0%. The “Shoots harvested, Total” value (soybean explants [2]; Spec level 250 mg/L) was 55 and 108, the “% TF (transformation frequency)” value (soybean explants [2]; [7]) was 18.6% and 15.5% and the “Shoots harvested, % SF (shoot frequency)” value (soybean explants [2]; [7]) was 33.3% and 19.9%. For the same compound, the “Shoots harvested, Total” value (soybean explants [2]; [7]) was 330 and 596, the average transformation frequency (soybean explants [2]; [8]) was 18.6% and the “transformation frequency, range” value (soybean explants [2]; [8]) was 12.6-26.1%. For the same compound, the “plants later shown to be transformed” value (soybean explants [2]; of the first 32 plants tested to confirm transformation, one escape) was 31, the transformation frequencies (dry soybean explants [3]; 150 ppm spectinomycin, dry excised soybean embryos, 1 hr hydration in INO, 4 days co-culture, two different studies) was 25.05% and 19.27% and the “% TF” value (dry soybean explants [3]; Spectinomycin 25 ppm in regeneration medium) was 4.66%. The “% TF” value (dry soybean explants [3]; Spectinomycin 50 ppm in regeneration medium) was 4.24%, the “% TF” value (dry soybean explants [3]; Spectinomycin 100 ppm in regeneration medium) was 6.34% and the “% TF” value (dry soybean explants [3]; Spectinomycin 200 ppm in regeneration medium) was 5.99%. For the same compound, the “TF % (mean of 3 repeats)” value (dry soybean explants [4]; Treatment 1-Control, hydration medium INO, incubation with Agrobacteria 0 minutes, surface plated on solid WPM) was 3.10%, the “TF % (mean of 3 repeats)” value (dry soybean explants [4]; Treatment 2, hydration medium BGM w/o cefotaxime, incubation with Agrobacteria 0 minutes) was 14.67% and the “TF % (mean of repeats)” value (dry soybean explants [4]; Treatment 2, no liquid overlay, Oasis Wedge transfer for regeneration) was 14.67%. For the same compound, the “TF % (mean of 3 repeats)” value (dry soybean explants [4]; Treatment 3, hydration medium BGM w/o cefotaxime, incubation with Agrobacteria 15 minutes) was 15.45%, the “TF % (mean of repeats)” value (dry soybean explants [4]; Treatment 3, liquid overlay 3 weeks post inoculation, 5 mLs on solid WPM, Oasis Wedge transfer) was 15.45% and the “TF % (mean of 3 repeats)” value (dry soybean explants [4]; Treatment 4, hydration medium BGM w/o cefotaxime, incubation with Agrobacteria 30 minutes) was 18.50%. For the same compound, the “TF % (mean of repeats)” value (dry soybean explants [4]; Treatment 4, liquid overlay 3 weeks post inoculation, 10 mLs on solid WPM, Oasis Wedge transfer) was 18.50%, the “TF % (mean of 3 repeats)” value (dry soybean explants [4]; Treatment 5, hydration medium INO, incubation with Agrobacteria 0 minutes) was 13.98% and the “TF % (mean of repeats)” value (dry soybean explants [4]; Treatment 5, liquid overlay 4 weeks post inoculation, 5 mLs on solid WPM, Oasis Wedge transfer) was 13.98%. The “TF % (mean of 3 repeats)” value (dry soybean explants [4]; Treatment 6, hydration medium INO, incubation with Agrobacteria 15 minutes) was 9.64%, the “TF % (mean of repeats)” value (dry soybean explants [4]; Treatment 6, liquid overlay 4 weeks post inoculation, 10 mLs on solid WPM, Oasis Wedge transfer) was 9.64% and the “TF % (mean of 3 repeats)” value (dry soybean explants [4]; Treatment 7, hydration medium INO, incubation with Agrobacteria 30 minutes) was 13.79%. The “TF % (mean of repeats)” value (dry soybean explants [4]; Treatment Control-1, liquid overlay NA, overlay volume None, no Oasis Wedge transfer) was 8.00%, the “% quality events” value ([5]; Dry Excised - 2T/OriRi, 14 events assayed) was 28.6% and the “# Events produced” value ([5]; Dry Excised - 2T/OriRi, 161 explants) was 15. For the same compound, the “Estimated mTF %” value ([5]; Dry Excised - 2T/OriRi) was 0.45%, the TF % ([5]; Dry Excised - 2T/OriRi) was 9.32 +/− 7.38% and the qTF % ([5]; Dry Excised - 2T/OriRi) was 2.5%. For the same compound, the “% quality events” value ([5]; Dry Excised - 2T/OriV, 32 events assayed) was 21.9%, the “# Events produced” value ([5]; Dry Excised - 2T/OriV, 260 explants) was 34 and the “Estimated mTF %” value ([5]; Dry Excised - 2T/OriV) was 0.62%. For the same compound, the TF % ([5]; Dry Excised - 2T/OriV) was 13.1 +/− 0.17%, the qTF % ([5]; Dry Excised - 2T/OriV) was 2.7 +/− 0.23% and the “% quality events” value ([5]; Pre-cultured Dry - 2T/OriRi, 64 events assayed) was 20.3%. For the same compound, the “# Events produced” value ([5]; Pre-cultured Dry - 2T/OriRi, 336 explants, pre-culture 5 days 23° C. dark in BGM) was 66, the “Estimated mTF %” value ([5]; Pre-cultured Dry - 2T/OriRi) was 0.7% and the TF % ([5]; Pre-cultured Dry - 2T/OriRi, pre-culture 5 days 23° C. dark in BGM) was 19.64 +/− 1.97%. For the same compound, the qTF % ([5]; Pre-cultured Dry - 2T/OriRi) was 3.9 +/− 1.22%, the “% quality events” value ([5]; Pre-cultured Dry - 2T/OriV, 311 events assayed) was 24.4% and the “# Events produced” value ([5]; Pre-cultured Dry - 2T/OriV, 1641 explants, pre-culture 5 days 23° C. dark in BGM) was 319. For the same compound, the “Estimated mTF %” value ([5]; Pre-cultured Dry - 2T/OriV) was 1.1%, the TF % ([5]; Pre-cultured Dry - 2T/OriV, pre-culture 5 days 23° C. dark in BGM) was 19.4 +/− 5.42% and the qTF % ([5]; Pre-cultured Dry - 2T/OriV) was 4.6 +/− 1.35%. For the same compound, the R0 plants ([6]; Fresh Dry Explants, no pre-culture step, 375 explants) was 24, the TF ([6]; Fresh Dry Explants, no pre-culture step) was 6.40% and the R0 plants ([6]; Fresh Dry Explants, pre-culture step 5 days 23° C. dark in BGM, 1008 explants) was 112. It also gave a TF ([6]; Fresh Dry Explants, pre-culture step 5 days 23° C. dark in BGM) of 11.11%, an R0 plants ([6]; Stored Dry Explants (3 months), no pre-culture step, 678 explants) of 71 and a TF ([6]; Stored Dry Explants (3 months), no pre-culture step) of 10.47%. For the same compound, the R0 plants ([6]; Stored Dry Explants (3 months), pre-culture step 5 days 23° C. dark in BGM, 901 explants) was 129, the TF ([6]; Stored Dry Explants (3 months), pre-culture step 5 days 23° C. dark in BGM) was 14.32% and the R0 plants ([6]; Wet Excised explants, no pre-culture step, 263 explants) was 75. It also gave a TF ([6]; Wet Excised explants, no pre-culture step) of 28.52%.

From patent US20150113683A1, “METHODS FOR PLANT TRANSFORMATION USING SPECTINOMYCIN SELECTION” (Monsanto Technology LLC, priority 2007, published 2015)
